± gives the expanded uncertainty stated by the source.
Columns and labels:
[1] = xn = mol fraction of the nth substance listed; conditions: 298.15 K, 101 kPa, Liquid; for viscosity: Capillary tube (Ostwald / Ubbelohde) method; for mass density: Pycnometric method; for speed of sound: ultra sonice interferometer
[2] = refractive index (Na D-line) (dimensionless); xn = mol fraction of the nth substance listed; conditions: 298.15 K, 101 kPa, Liquid, Standard Abbe refractometry
[3] = 298.15 K, 101 kPa, Liquid
[4] = refractive index (Na D-line) (dimensionless); conditions: 298.15 K; 101.33 kPa; Liquid; Standard Abbe refractometry

`ClCCl` [dichloromethane] + CCCOC(C)=O showed a viscosity ([1]; x1 = 0.546) of 0.518 ± 0.007 mPa·s, a mass density ([1]; x1 = 0.546) of 1053.5 ± 0.6 kg/m3 and a speed of sound ([1]; x1 = 0.546) of 1181 ± 1 m/s. It also gave a refractive index ([2]; x1 = 0.546) of 1.397 ± 0.001.
With `ClCCl` [dichloromethane] + COC(C)=O the viscosity ([1]; x1 = 0.4659) was 0.425 ± 0.007 mPa·s, the mass density ([1]; x1 = 0.4659) was 1078 ± 0.6 kg/m3 and the speed of sound ([1]; x1 = 0.4659) was 1056 ± 1 m/s. The refractive index ([2]; x1 = 0.4659) was 1.38 ± 0.001.
`ClCCl` [dichloromethane] + CCCCOC(C)=O gave a viscosity ([1]; x1 = 0.5777) of 0.575 ± 0.008 mPa·s, a mass density ([1]; x1 = 0.5777) of 1049.2 ± 0.6 kg/m3 and a speed of sound ([1]; x1 = 0.5777) of 1181 ± 1 m/s. For the same compound, the refractive index ([2]; x1 = 0.5777) was 1.403 ± 0.001.
`C1COCO1` [1,3-dioxolane] gave a viscosity ([3]; Capillary tube (Ostwald / Ubbelohde) method) of 0.588 ± 0.008 mPa·s, a mass density ([3]; Pycnometric method) of 1057 ± 0.6 kg/m3 and a speed of sound ([3]; ultra sonice interferometer) of 1339 ± 1 m/s. It also gave a refractive index [4] of 1.398 ± 0.001.
`ClCCl` [dichloromethane] + CCOC(C)=O gave a viscosity ([1]; x1 = 0.5092) of 0.456 ± 0.007 mPa·s, a mass density ([1]; x1 = 0.5092) of 1059.2 ± 0.6 kg/m3 and a speed of sound ([1]; x1 = 0.5092) of 1059 ± 1 m/s. The refractive index ([2]; x1 = 0.5092) was 1.388 ± 0.001.
Compound `CC(=O)OCCC(C)C` [3-methylbutyl ethanoate] + ClCCl has a viscosity ([1]; x2 = 0.6052) of 0.633 ± 0.008 mPa·s, a mass density ([1]; x2 = 0.6052) of 1043.3 ± 0.6 kg/m3 and a speed of sound ([1]; x2 = 0.6052) of 1115 ± 1 m/s. The refractive index ([2]; x2 = 0.6052) was 1.406 ± 0.001.
